Columns and labels:
[1] = target: T1, IKZF1 (Homo sapiens, UniProt Q13422); assay: Cellular degradation assay, eGFP-IKZF1Δ fusion with mCherry reporter in Flp-In 293 cells; type: cell-based; conditions: 5 h incubation, n=1
T1 construct: expressed in transfected cells; host or cells: Flp-In 293
Procedure, shortened: (§1)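 Flp-In 293 cells stably expressing eGFP-tagged degron fusions with P2A-mCherry reporter were treated with compound titrations (0.5% DMSO) for 5 hours. Imaging quantified GFP-positive/mCherry-positive cell fraction per well; DC50 at 5 h from nonlinear variable-slope fit.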

[2] = test system: IKZF2; assay: Cellular degradation assay, eGFP-IKZF2Δ fusion with mCherry reporter in Flp-In 293 cells; type: cell-based; conditions: 5 h incubation, n=1
Procedure, shortened: as §1

[3] = target: T2, SALL4 ZNF1-2 (Homo sapiens, UniProt Q96SW2+Q9UJQ4); assay: Cellular degradation assay, eGFP-SALL4 ZnF1-2 fusion with mCherry reporter in Flp-In 293 cells; type: cell-based; conditions: 5 h incubation, n=1
T2 construct: IKZF1Δ, IKZF2Δ, GSPT1 and SALL4 ZnF1-2 were subcloned; expressed in transfected cells; host or cells: Flp-In 293
T2 sequence (Q9UJQ4 378-438 limits assumed): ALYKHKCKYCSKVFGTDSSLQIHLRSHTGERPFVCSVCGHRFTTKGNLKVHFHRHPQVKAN
T2 sequence (Q96SW2 whole entry, the tested form may be a part): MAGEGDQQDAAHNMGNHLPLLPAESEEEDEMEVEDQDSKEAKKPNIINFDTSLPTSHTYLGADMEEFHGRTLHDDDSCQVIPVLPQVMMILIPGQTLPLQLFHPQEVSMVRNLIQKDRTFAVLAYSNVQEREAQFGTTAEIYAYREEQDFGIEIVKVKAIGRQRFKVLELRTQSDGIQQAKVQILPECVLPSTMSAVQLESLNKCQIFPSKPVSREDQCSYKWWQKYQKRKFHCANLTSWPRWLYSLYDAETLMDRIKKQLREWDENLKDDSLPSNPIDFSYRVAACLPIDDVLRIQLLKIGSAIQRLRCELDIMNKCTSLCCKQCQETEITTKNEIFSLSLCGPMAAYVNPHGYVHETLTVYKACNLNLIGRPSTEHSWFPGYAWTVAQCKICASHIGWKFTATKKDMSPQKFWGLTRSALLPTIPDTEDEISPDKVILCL
T2 sequence (Q16531 whole entry partner, the tested form may be a part): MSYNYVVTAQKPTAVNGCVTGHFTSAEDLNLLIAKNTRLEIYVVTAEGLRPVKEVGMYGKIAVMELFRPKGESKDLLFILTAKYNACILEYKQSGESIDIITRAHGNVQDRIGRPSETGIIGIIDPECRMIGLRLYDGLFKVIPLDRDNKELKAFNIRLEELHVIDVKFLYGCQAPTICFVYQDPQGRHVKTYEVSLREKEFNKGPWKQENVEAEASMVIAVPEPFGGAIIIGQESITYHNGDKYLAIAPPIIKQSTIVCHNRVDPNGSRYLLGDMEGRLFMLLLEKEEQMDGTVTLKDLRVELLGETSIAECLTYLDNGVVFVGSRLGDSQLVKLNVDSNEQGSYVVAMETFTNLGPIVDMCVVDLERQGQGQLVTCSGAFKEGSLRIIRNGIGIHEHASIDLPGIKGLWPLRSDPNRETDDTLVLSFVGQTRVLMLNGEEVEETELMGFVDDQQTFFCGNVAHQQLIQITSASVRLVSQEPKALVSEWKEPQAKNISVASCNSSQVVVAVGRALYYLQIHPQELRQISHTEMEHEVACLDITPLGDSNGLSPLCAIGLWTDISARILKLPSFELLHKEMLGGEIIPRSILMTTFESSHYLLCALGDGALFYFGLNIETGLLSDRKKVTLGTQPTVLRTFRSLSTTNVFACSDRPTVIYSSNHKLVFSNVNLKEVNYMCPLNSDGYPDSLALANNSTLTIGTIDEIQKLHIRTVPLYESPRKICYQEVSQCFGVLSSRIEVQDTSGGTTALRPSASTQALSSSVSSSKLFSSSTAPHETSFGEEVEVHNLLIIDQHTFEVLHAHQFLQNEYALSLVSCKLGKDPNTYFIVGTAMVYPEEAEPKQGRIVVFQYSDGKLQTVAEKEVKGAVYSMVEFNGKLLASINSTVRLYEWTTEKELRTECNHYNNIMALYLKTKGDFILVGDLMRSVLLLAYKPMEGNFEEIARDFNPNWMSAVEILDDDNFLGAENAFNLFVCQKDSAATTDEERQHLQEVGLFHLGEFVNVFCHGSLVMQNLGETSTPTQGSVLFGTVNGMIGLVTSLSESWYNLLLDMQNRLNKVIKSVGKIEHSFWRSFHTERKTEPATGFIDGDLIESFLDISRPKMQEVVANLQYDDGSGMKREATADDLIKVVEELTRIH
Method: IKZF1Δ, IKZF2Δ, GSPT1 and SALL4 ZnF1-2 were subcloned into mammalian pcDNA5/FRT Vector (Ampicillin and Hygromycin B resistant) modified to contain MCS-eGFP-P2A-mCherry. Stable cell lines expressing eGFP-protein fusion and mCherry reporter were generated using Flp-In™ 293 system. Plasmid (0.3 μg) and pOG44 (4.7 μg) DNA were preincubated in 100 μL of Opti-MEM® I (Gibco®, Life Technologies™) media containing 0.05 mg/mL Lipofectamine® 2000 (Invitrogen™) for 20 min and added to Flp-In™ 293 cells containing 1.9 ml of DMEM media (Gibco®, Life Technologies™) per well in a 6-well plate format (Falcon, 353046). Cells were propagated after 48 h and transferred into a 10 cm^2 plate (Corning, 430165) in DMEM media containing 50 μg/mL of Hygromycin B (REF 10687010, Invitrogen™) as a selection marker. Following 2-3 passage cycle, FACS (FACSAria™ II, BD) was used to enrich for cells expressing eGFP and mCherry. Cells stably expressing the IKZF1Δ, IKZF2Δ, GSPT1 or SALL4 Znf1-2 GFP fusions with mCherry reporter were seeded at 30-50% confluency in 384-well plates with 50 μL FluoroBrite™ DMEM media (Thermo Fisher Scientific, A18967) containing 10% FBS per well a day before compound treatment. Compound titrations were dispensed using a D300e Digital Dispenser (HP), normalized to 0.5% DMSO, and incubated with cells for 5 hours. The assay plate was imaged immediately using an Acumen® High Content Imager (TTP Labtech) with 488 nm and 561 nm lasers in […] grid per well format.
The resulting images were analyzed using CellProfiler™. A series of image analysis steps (‘image analysis pipeline’) was constructed. First, the red and green channels were aligned and cropped to target the middle of each well (to avoid analysis of heavily clumped cells at the edges), and a background illumination function was calculated for both red and green channels of each well individually and subtracted to correct for illumination variations across the 384-well plate from various sources of error. An additional step was then applied to the green channel to suppress the analysis of large auto fluorescent artifacts and enhance the analysis of cell specific fluorescence by way of selecting for objects under a given size, 30 A.U., and with a given shape, speckles. mCherry-positive cells were then identified in the red channel filtering for objects between 8-60 pixels in diameter and using intensity to distinguish between clumped objects. The green channel was then segmented into GFP positive and negative areas and objects were labeled as GFP positive if at least 40% of it overlapped with a GFP positive area. The fraction of GFP-positive cells/mCherry-positive cells in each well was then calculated, and the green and red images were rescaled for visualization.

[4] = target: GSPT1 (Homo sapiens, UniProt P15170+Q96SW2); assay: Cellular degradation assay, eGFP-GSPT1 fusion with mCherry reporter in Flp-In 293 cells; type: cell-based; design: expressed in transfected cells; host or cells: Flp-In 293; conditions: 5 h incubation, n=1
Sequence of GSPT1 (P15170 whole entry, the tested form may be a part): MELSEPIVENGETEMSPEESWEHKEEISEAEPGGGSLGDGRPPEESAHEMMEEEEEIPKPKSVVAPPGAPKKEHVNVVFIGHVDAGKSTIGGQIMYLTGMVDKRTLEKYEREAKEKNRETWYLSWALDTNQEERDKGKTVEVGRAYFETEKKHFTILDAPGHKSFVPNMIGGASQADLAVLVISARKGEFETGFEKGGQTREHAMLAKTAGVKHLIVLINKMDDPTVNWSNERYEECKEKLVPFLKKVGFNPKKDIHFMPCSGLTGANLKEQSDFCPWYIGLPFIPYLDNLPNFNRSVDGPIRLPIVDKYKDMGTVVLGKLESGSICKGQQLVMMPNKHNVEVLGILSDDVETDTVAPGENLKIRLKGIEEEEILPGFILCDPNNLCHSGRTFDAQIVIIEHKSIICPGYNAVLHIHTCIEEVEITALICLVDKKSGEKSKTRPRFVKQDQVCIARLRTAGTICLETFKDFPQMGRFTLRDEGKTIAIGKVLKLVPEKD
Sequence of GSPT1 (Q96SW2 whole entry, the tested form may be a part): as the sequence (Q96SW2 whole entry, the tested form may be a part) above
Sequence of GSPT1 (Q16531 whole entry partner, the tested form may be a part): as the sequence (Q16531 whole entry partner, the tested form may be a part) above
Procedure, shortened: as §1

[5] = target: T3, CRBN and Helios (IKZF2) (Homo sapiens, UniProt Q96SW2+Q9UKS7); assay: TR-FRET dimerization assay (CRBN-IKZF2 ternary complex formation); type: binding; conditions: n=1
T3 construct: His (N); Strep (N)
T3 sequence (Q96SW2 whole entry): as the sequence (Q96SW2 whole entry, the tested form may be a part) above
T3 sequence (Q9UKS7 whole entry): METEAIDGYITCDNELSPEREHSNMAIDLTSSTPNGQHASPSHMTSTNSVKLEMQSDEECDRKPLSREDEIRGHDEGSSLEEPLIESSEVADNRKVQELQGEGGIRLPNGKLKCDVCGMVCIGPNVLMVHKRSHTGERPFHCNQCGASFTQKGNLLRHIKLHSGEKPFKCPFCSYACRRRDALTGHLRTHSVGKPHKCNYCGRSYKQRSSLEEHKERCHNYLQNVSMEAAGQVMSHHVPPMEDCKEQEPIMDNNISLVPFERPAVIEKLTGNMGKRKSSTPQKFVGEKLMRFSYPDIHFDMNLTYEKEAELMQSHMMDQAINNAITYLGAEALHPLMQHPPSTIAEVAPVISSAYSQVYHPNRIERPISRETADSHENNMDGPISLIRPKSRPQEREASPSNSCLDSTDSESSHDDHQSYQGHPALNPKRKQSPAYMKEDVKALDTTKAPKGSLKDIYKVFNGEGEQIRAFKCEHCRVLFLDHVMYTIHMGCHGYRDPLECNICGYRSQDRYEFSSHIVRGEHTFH
Procedure, shortened: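 BODIPY-labeled DDB1ΔB-CRBN and in vitro biotinylated IKZF2 were treated with increasing compound concentrations plus tracer Terbium-Streptavidin and incubated 15 min at rt. Recruitment was quantified as the 520/490 nm TR-FRET ratio; values are single measurements (n=1), each averaged from at least three technical replicates.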

[6] = compound concentration 2.00E−05
[7] = compound concentration 2.00E−06
[8] = compound concentration 2.00E−07
[9] = compound concentration 6.6667E−05
[10] = compound concentration 6.6667E−06
[11] = compound concentration 6.6667E−07 (667 nM)

T1 sequence (Q13422 83-213 isoform Q13422-7 limits assumed): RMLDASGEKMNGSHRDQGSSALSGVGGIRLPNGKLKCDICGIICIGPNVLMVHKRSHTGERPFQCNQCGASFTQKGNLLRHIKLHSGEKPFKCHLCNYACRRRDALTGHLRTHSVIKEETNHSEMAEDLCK
T1 sequence (Q96SW2 whole entry partner, the tested form may be a part): as the sequence (Q96SW2 whole entry, the tested form may be a part) above
T1 sequence (Q16531 2-1140 partner limits assumed): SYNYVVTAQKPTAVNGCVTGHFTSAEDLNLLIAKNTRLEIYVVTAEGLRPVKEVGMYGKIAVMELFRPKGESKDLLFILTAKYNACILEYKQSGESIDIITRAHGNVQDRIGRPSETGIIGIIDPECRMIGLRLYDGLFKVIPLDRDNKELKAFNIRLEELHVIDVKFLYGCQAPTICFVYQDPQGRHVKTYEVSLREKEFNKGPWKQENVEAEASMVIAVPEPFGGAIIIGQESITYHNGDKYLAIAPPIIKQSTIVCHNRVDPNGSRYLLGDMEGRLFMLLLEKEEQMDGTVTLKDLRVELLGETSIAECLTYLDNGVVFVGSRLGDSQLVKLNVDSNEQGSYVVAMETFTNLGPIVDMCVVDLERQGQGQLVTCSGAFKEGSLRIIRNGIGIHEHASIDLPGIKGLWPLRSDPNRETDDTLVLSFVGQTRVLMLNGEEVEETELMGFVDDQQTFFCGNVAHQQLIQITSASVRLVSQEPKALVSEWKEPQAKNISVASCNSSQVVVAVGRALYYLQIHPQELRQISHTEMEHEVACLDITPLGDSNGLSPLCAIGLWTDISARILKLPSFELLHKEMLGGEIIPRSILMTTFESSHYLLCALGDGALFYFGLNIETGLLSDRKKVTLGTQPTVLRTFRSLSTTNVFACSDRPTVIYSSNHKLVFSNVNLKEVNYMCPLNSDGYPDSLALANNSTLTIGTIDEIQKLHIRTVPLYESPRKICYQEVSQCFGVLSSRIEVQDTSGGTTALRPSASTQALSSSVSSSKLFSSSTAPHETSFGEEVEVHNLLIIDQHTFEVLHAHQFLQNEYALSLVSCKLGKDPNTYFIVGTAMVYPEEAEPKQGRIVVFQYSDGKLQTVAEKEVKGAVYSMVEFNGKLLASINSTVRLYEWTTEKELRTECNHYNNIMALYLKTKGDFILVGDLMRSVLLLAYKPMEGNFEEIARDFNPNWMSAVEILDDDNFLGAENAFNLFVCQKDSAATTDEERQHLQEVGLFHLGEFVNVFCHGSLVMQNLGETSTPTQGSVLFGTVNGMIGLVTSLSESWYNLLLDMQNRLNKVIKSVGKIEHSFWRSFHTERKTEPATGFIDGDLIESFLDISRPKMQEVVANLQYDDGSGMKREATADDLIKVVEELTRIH

| SMILES | IKZF1 GFP/RFP Relative Abundance [1, 6] | IKZF1 GFP/RFP Relative Abundance [1, 7] | IKZF1 GFP/RFP Relative Abundance [1, 8] | IKZF2 GFP/RFP Relative Abundance [2, 6] | IKZF2 GFP/RFP Relative Abundance [2, 7] | IKZF2 GFP/RFP Relative Abundance [2, 8] | SALL4 ZNF1-2 GFP/RFP Relative Abundance [3, 6] | SALL4 ZNF1-2 GFP/RFP Relative Abundance [3, 7] | SALL4 ZNF1-2 GFP/RFP Relative Abundance [3, 8] | GSPT1 GFP/RFP Relative Abundance [4, 6] | GSPT1 GFP/RFP Relative Abundance [4, 7] | GSPT1 GFP/RFP Relative Abundance [4, 8] | TR-FRET-IKZF2 (Normalized to CC-885) [5, 9] | TR-FRET-IKZF2 (Normalized to CC-885) [5, 10] | TR-FRET-IKZF2 (Normalized to CC-885) [5, 11] |
| --- | --- | --- | --- | --- | --- | --- | --- | --- | --- | --- | --- | --- | --- | --- | --- |
| O=C1CCC(N2C(=O)C=C(Nc3cccc(Cl)c3)C2=O)C(=O)N1 (stereo not drawn) [Compound 26, 3-(3-((3-chlorophenyl)amino)-2,5-dioxo-2,5-dihydro-1H-pyrrol-1-yl)piperidine-2,6-dione] | 0.290 | 0.381 | 0.478 | 0.913 | 0.929 | 0.981 | 0.855 | 0.869 | 0.787 | 0.952 | 1.036 | 1.107 | 0.365 | 0.293 | 0.228 |
| CCOC(=O)CN(C)C1=CC(=O)N(C2CCC(=O)NC2=O)C1=O (stereo not drawn) [Compound 17, Ethyl N-(1-(2,6-dioxopiperidin-3-yl)-2,5-dioxo-2,5-dihydro-1H-pyrrol-3-yl)-N-methylglycinate] | 1.020 | 1.018 | 1.025 | 1.006 | 0.996 | 1.037 | 0.897 | 0.912 | 0.895 | 0.942 | 1.001 | 0.795 | 0.043 | 0.032 | 0.015 |
| CN(C)C(=O)c1cccc(NC2=CC(=O)N(C3CCC(=O)NC3=O)C2=O)c1 (stereo not drawn) [Compound 33, 3-((1-(2,6-dioxopiperidin-3-yl)-2,5-dioxo-2,5-dihydro-1H-pyrrol-3-yl)amino)-N,N-dimethylbenzamide] | 0.339 | 0.413 | 0.445 | 0.372 | 0.521 | 0.570 | 0.783 | 0.813 | 0.860 | 0.944 | 0.952 | 0.956 | 0.584 | 0.491 | 0.452 |
| O=C1CCC(N2C(=O)C=C(Nc3cccc(-c4cc[nH]n4)c3)C2=O)C(=O)N1 (stereo not drawn) [Compound 31, 3-(3-((3-(1H-pyrazol-3-yl)phenyl)amino)-2,5-dioxo-2,5-dihydro-1H-pyrrol-1-yl)piperidine-2,6-dione] | 0.254 | 0.290 | 0.399 | 0.494 | 0.638 | 0.766 | 0.755 | 0.626 | 0.713 | 0.666 | 1.197 | 1.240 | 0.628 | 0.521 | 0.434 |
| O=C1CCC(N2C(=O)C=C(Nc3ccccc3)C2=O)C(=O)N1 (stereo not drawn) [Compound 2, 3-(2,5-dioxo-3-(phenylamino)-2,5-dihydro-1H-pyrrol-1-yl)piperidine-2,6-dione] | 0.143 | 0.143 | 0.147 | 0.878 | 0.920 | 0.864 | 0.724 | 0.762 | 0.774 | 0.763 | 0.903 | 0.930 | 0.386 | 0.306 | 0.286 |
| Cc1ccc(NC2=CC(=O)N(C3CCC(=O)NC3=O)C2=O)cc1C#N (stereo not drawn) [Compound 5, 5-((1-(2,6-dioxopiperidin-3-yl)-2,5-dioxo-2,5-dihydro-1H-pyrrol-3-yl)amino)-2-methylbenzonitrile] | 0.395 | 0.478 | 0.650 | 0.930 | 1.000 | 1.020 | 1.008 | 0.946 | 0.992 | 0.714 | 0.843 | 1.050 | 0.376 | 0.296 | 0.187 |
| CCOC(=O)c1cccc(NC2=CC(=O)N(C3CCC(=O)NC3=O)C2=O)c1 (stereo not drawn) [Compound 30, Ethyl 3-((1-(2,6-dioxopiperidin-3-yl)-2,5-dioxo-2,5-dihydro-1H-pyrrol-3-yl)amino)benzoate] | 0.388 | 0.437 | 0.631 | 0.916 | 0.928 | 0.979 | 0.815 | 0.786 | 0.896 | 1.100 | 1.129 | 1.192 | 0.386 | 0.324 | 0.228 |
| Cc1ccc(NC(=O)/C=C/c2cccc(NC3=CC(=O)N(C4CCC(=O)NC4=O)C3=O)c2)cc1Cl (stereo not drawn) [Compound 57, (E)-N-(3-chloro-4-methylphenyl)-3-(3-((1-(2,6-dioxopiperidin-3-yl)-2,5-dioxo-2,5-dihydro-1H-pyrrol-3-yl)amino)phenyl)acrylamide] | 0.502 | 0.214 | 0.305 | 0.843 | 0.622 | 0.656 | – | – | – | 0.385 | 0.559 | 0.779 | 0.530 | 0.365 | 0.282 |

Reference: US12227488B2, “Small molecule degraders of Helios and methods of use” (DANA-FARBER CANCER INSTITUTE, INC., priority 2018, dated 2025)
